Drawing on patent US6924305B2, “Diazocine derivatives and their use as tryptase inhibitors” (Altana Pharma AG, priority 2001, dated 2005), this text covers pKiapp for five compounds.

The target in this experiment is human tryptase. Briefly: Inhibition of human tryptase (apparent dissociation constant, chromogenic substrate tos-Gly-Pro-arg-pNA). The class given is biochemical. Conditions: pKiapp = -log Kiapp (mol/l), in presence of substrate, heparin 0.1-50 μg/ml, equilibrium conditions. The source says: The documented pathophysiological effects of mast cell tryptase are caused directly by the enzymatic activity of the protease. Accordingly, they are reduced or blocked by inhibitors which inhibit the enzymatic activity of the tryptase. A suitable measure for the affinity of a reversible inhibitor to the target protease is the equilibrium dissociation constant K1 of the enzyme-inhibitor complex. This K1 value can be determined via the effect of the inhibitor on the tryptase-induced cleavage of a chromogenic peptide-p-nitroanilide substrate or a fluorogenic peptide-aminomethylcoumarin substrate.
The dissociation constants for the tryptase-inhibitor complexes are determined under equilibrium conditions in accordance with the general proposals of Bieth (Bieth J G, Pathophysiological Interpretation of kinetic constants of protease inhibitors, Bull. Europ. Physiopath. Resp. 16:183-195, 1980) and the methods of Sommerhoff et al. (Sommerhoff C P et al., A Kazal-type inhibitor of human mast cell tryptase: Isolation from the medical leech Hirudo medicinalis, characterization, and sequence analysis, Biol. Chem. Hoppe-Seyler 375: 685-694, 1994).
Human tryptase is isolated from lung tissue or prepared recombinantly; the specific activity of the protease, determined by titration, is usually greater than 85% of the theoretical value. In the presence of heparin (0.1-50 μg/ml) for stabilizing the protease, constant amounts of the tryptase are incubated with increasing amounts of the inhibitors. After an equilibrium between the reaction partners has formed, the remaining enzyme activity after addition of the peptide-p-nitroanilide substrate tos-Gly-Pro-arg-pNA is determined and the cleavage of the latter is monitored at 405 nm for 3 min. Alternatively, the remaining enzymatic activity can also be determined using fluorogenic substrates. The apparent dissociation constants Klapp (i.e. in the presence of substrate) are subsequently determined by adapting the enzyme rates to the general equation for reversible inhibitors (Morrison J F, Kinetics of the reversible inhibition of enzyme-catalyzed reactions by tight-binding inhibitors, Biochim. Biophys. Acta 185, 269-286, 1969) using non-linear regression: V1/V0=1−{Et+It+Klapp−(Et+ItKlapp)^2−4EtIt]^1/2}/2Et V1 and V0 are the rates in the presence and absence, respectively, of the inhibitor, and Et and It are the tryptase and inhibitor concentrations, respectively.
The apparent dissociation constants determined for the compounds according to the invention are shown in Table A below, where the numbers of the compounds correspond to the numbers of the compounds in the examples [pKlapp=−logKlapp (mol/l)].
Turning to `Cl.Cl.NCc1ccc(CCC(=O)N2CC(NC(=O)CN3CCC(=O)N(CC(=O)NC4CC(C(=O)OCc5ccccc5)N(C(=O)CCc5ccc(CN)cc5)C4)CCC3=O)CC2C(=O)OCc2ccccc2)cc1` (centres unmarked) [Compound 2, 1,5-Bis{N,N′-[1-(3-(4-aminomethylphenyl)propionyl)-2-benzyloxycarbonylpyrrolidin-4-yl]aminocarbonylmethyl}perhydro-1,5-diazocine-2,6-dione dihydrochloride], the pKiapp worked out at 9.22.

In the case of `Cl.Cl.NCc1ccc(CCC(=O)N2CC(NC(=O)CN3CCC(=O)N(CC(=O)NC4CC(C(N)=O)N(C(=O)CCc5ccc(CN)cc5)C4)CCC3=O)CC2C(N)=O)cc1` (centres unmarked) [Compound 5, 1,5-Bis{N,N′-[1-(3-(4-aminomethylphenyl)proplonyl)-2-aminocarbonylpyrrolidin-4-yl]-aminocarbonylmethyl}perhydro-1,5-diazocine-2,6-dione dihydrochloride], the pKiapp was determined as 8.80.

On to `Cl.Cl.NCc1ccc(CCC(=O)N2CC(NC(=O)CN3CCC(=O)N(CC(=O)NC4CC(C(=O)NC5CC5)N(C(=O)CCc5ccc(CN)cc5)C4)CCC3=O)CC2C(=O)NC2CC2)cc1` (centres unmarked) [Compound 4, 1,5-Bis{N,N′-[1-(3-(4-aminomethylphenyl)propionyl)-2-cyclopropylaminocarbonyl-pyrrolidin-4-yl]aminocarbonylmethyl}perhydro-1,5-diazocine-2,6-dione dihydrochloride], for which the pKiapp came out at 9.66.

On to `COC(=O)C1CC(NC(=O)CN2CCC(=O)N(CC(=O)NC3CC(C(=O)OC)N(C(=O)CCc4ccc(CN)cc4)C3)CCC2=O)CN1C(=O)CCc1ccc(CN)cc1.Cl.Cl` (centres unmarked) [Compound 1, 1,5-Bis{N,N′-[1-(3-(4-aminomethylphenyl)propionyl)-2-methoxycarbonylpyrrolidin-4-yl]aminocarbonylmethyl}perhydro-1,5-diazocine-2,6-dione dihydrochloride], for which the pKiapp is 9.05.

As for `Cl.Cl.NCc1ccc(CCC(=O)N2CC(NC(=O)CN3CCC(=O)N(CC(=O)NC4CC(C(=O)O)N(C(=O)CCc5ccc(CN)cc5)C4)CCC3=O)CC2C(=O)O)cc1` (centres unmarked) [Compound 3, 1,5-Bis{N,N′-[1-(3-(4-aminomethylphenyl)proplonyl)-2-carboxypyrrlidin-4-yl]-aminocarbonylmethyl}perhydro-1,5-diazocine-2,6-dine dihydrochloride], the pKiapp came out at 7.43.
